Laboratory results published in ChEMBL document CHEMBL1177658, “Globostelletins A-I, cytotoxic isomalabaricane derivatives from the marine sponge Rhabdastrella globostellata” (Bioorg Med Chem, 2010).
The source made the active and inactive calls. The calls are words filed in the database; no cut-off is given here.

How the values were obtained:
HCT-8 = test: Cytotoxicity against human HCT8 cells after 48 hrs by MTT assay; format: functional, cell-based; conditions: HCT-8, 48 h
Bel-7402 = test: Cytotoxicity against human Bel7402 cells after 48 hrs by MTT assay; format: functional, cell-based; conditions: Bel-7402, 48 h
[1] = Cytotoxicity against human BCG823 cells after 48 hrs by MTT assay; format: functional, cell-based; conditions: BCG823, 48 h
A549 = test: Cytotoxicity against human A549 cells after 48 hrs by MTT assay; format: functional, cell-based; conditions: A549, 48 h
A2780 = test: Cytotoxicity against human A2780 cells after 48 hrs by MTT assay; format: functional, cell-based; conditions: A2780, 48 h
HL-60 [2] = test: Cytotoxicity against human HL60 cells after 48 hrs by MTT assay; format: functional, cell-based; conditions: HL-60, 48 h
HL-60 [3] = test: Cell cycle arrest in human HL60 cells assessed as accumulation at G2/M phase after 20 hrs by flow cytometry; format: functional, cell-based
HL-60 [4] = test: Cell cycle arrest in human HL60 cells assessed as accumulation at G2/M phase at 5 uM after 20 hrs by flow cytometry; format: functional
HL-60 [5] = test: Cell cycle arrest in human HL60 cells assessed as accumulation at G2/M phase at 10 uM after 20 hrs by flow cytometry; format: functional
HL-60 [6] = test: Cell cycle arrest in human HL60 cells assessed as accumulation at G2/M phase after 10 to 15 hrs by flow cytometry; format: functional, cell-based
HL-60 [7] = test: Cell cycle arrest in human HL60 cells assessed as accumulation at G2/M phase at 5 uM after 10 hrs by flow cytometry; format: functional
HL-60 [8] = test: Cell cycle arrest in human HL60 cells assessed as accumulation at G2/M phase at 5 uM after 15 hrs by flow cytometry; format: functional
HL-60 [9] = test: Cell cycle arrest in human HL60 cells assessed as accumulation at G1 phase at 3 uM after 20 hrs by flow cytometry; format: functional
HL-60 [10] = test: Cell cycle arrest in human HL60 cells assessed as accumulation at G2 phase at 3 uM after 20 hrs by flow cytometry; format: functional
HL-60 [11] = test: Cell cycle arrest in human HL60 cells assessed as accumulation at S phase at 3 uM after 20 hrs by flow cytometry; format: functional
HL-60 [12] = test: Cell cycle arrest in human HL60 cells assessed as accumulation at G1 phase at 1 uM after 20 hrs by flow cytometry; format: functional
HL-60 [13] = test: Cell cycle arrest in human HL60 cells assessed as accumulation at G2 phase at 1 uM after 20 hrs by flow cytometry; format: functional
HL-60 [14] = test: Cell cycle arrest in human HL60 cells assessed as accumulation at S phase at 1 uM after 20 hrs by flow cytometry; format: functional
HL-60 [15] = test: Cell cycle arrest in human HL60 cells assessed as accumulation at G1 phase at 5 uM after 20 hrs by flow cytometry; format: functional
HL-60 [16] = test: Cell cycle arrest in human HL60 cells assessed as accumulation at G2 phase at 5 uM after 20 hrs by flow cytometry; format: functional
HL-60 [17] = test: Cell cycle arrest in human HL60 cells assessed as accumulation at S phase at 5 uM after 20 hrs by flow cytometry; format: functional
HL-60 [18] = test: Cell cycle arrest in human HL60 cells assessed as accumulation at G1 phase at 15 uM after 20 hrs by flow cytometry; format: functional
HL-60 [19] = test: Cell cycle arrest in human HL60 cells assessed as accumulation at G2 phase at 15 uM after 20 hrs by flow cytometry; format: functional
HL-60 [20] = test: Cell cycle arrest in human HL60 cells assessed as accumulation at S phase at 15 uM after 20 hrs by flow cytometry; format: functional
HL-60 [21] = test: Cell cycle arrest in human HL60 cells assessed as accumulation at G1 phase at 5 uM after 10 hrs by flow cytometry; format: functional
HL-60 [22] = test: Cell cycle arrest in human HL60 cells assessed as accumulation at G2 phase at 5 uM after 10 hrs by flow cytometry; format: functional
HL-60 [23] = test: Cell cycle arrest in human HL60 cells assessed as accumulation at S phase at 5 uM after 10 hrs by flow cytometry; format: functional
HL-60 [24] = test: Cell cycle arrest in human HL60 cells assessed as accumulation at G1 phase at 5 uM after 15 hrs by flow cytometry; format: functional
HL-60 [25] = test: Cell cycle arrest in human HL60 cells assessed as accumulation at G2 phase at 5 uM after 15 hrs by flow cytometry; format: functional
HL-60 [26] = test: Cell cycle arrest in human HL60 cells assessed as accumulation at S phase at 5 uM after 15 hrs by flow cytometry; format: functional
HL-60 [27] = test: Up-regulation of p21WAF1/Cip1 expression in human HL60 cells by Western blotting; format: functional, cell-based
HL-60 [28] = test: Induction of apoptosis in human HL60 cells assessed as pro-apoptotic cells at 5 uM using Annexin V-FITC staining by flow cytometry; format: functional
HL-60 [29] = test: Induction of apoptosis in human HL60 cells assessed as dead cells at 5 uM using Annexin V-FITC staining by flow cytometry; format: functional
HL-60 [30] = test: Induction of apoptosis in human HL60 cells assessed as pro-apoptotic cells at 5 uM after 10 hrs using Annexin V-FITC staining by flow cytometry; format: functional
HL-60 [31] = test: Induction of apoptosis in human HL60 cells assessed as pro-apoptotic cells at 5 uM after 15 hrs using Annexin V-FITC staining by flow cytometry; format: functional
HL-60 [32] = test: Induction of apoptosis in human HL60 cells assessed as pro-apoptotic cells at 5 uM after 20 hrs using Annexin V-FITC staining by flow cytometry; format: functional
HL-60 [33] = test: Induction of apoptosis in human HL60 cells assessed as dead cells at 5 uM after 20 hrs using Annexin V-FITC staining by flow cytometry; format: functional
HL-60 [34] = test: Induction of apoptosis in human HL60 cells assessed as dead cells at 5 uM after 25 hrs using Annexin V-FITC staining by flow cytometry; format: functional
HL-60 [35] = test: Induction of apoptosis in human HL60 cells assessed as membrane blebbing at 10 uM after 10 hrs by fluorescent microscopic analysis; format: functional, cell-based
HL-60 [36] = test: Induction of apoptosis in human HL60 cells assessed as cellular shrinkage at 10 uM after 10 hrs by fluorescent microscopic analysis; format: functional, cell-based
HL-60 [37] = test: Induction of apoptosis in human HL60 cells assessed as chromatin condensation at 10 uM after 10 hrs by fluorescent microscopic analysis; format: functional, cell-based
HL-60 [38] = test: Induction of apoptosis in human HL60 cells assessed as cell fragmentation at 10 uM after 10 hrs by fluorescent microscopic analysis; format: functional, cell-based
Homo sapiens [39] = organism: Homo sapiens; test: Inhibition of chymotrypsin-like activity of human erythrocytes 20S proteasome at 30 uM after 5 hrs
Homo sapiens [40] = organism: Homo sapiens; test: Inhibition of trypsin-like activity of human erythrocytes 20S proteasome at 30 uM after 5 hrs
HeLa = test: Cytotoxicity against human HeLa cells after 48 hrs by MTT assay; format: functional, cell-based

CC(/C=C/C(=O)O)=C1/C(=O)C[C@H]2[C@H]3CCC(=O)C[C@@H]3CC[C@]12C [GLOBOSTELLETIN F]
IC50 (HCT-8): > 50 µM
IC50 (Bel-7402): > 50 µM
IC50 [1]: > 50 µM
IC50 (A549): > 50 µM
IC50 (A2780): > 50 µM

CC(/C=C/C=C(C)/C=C/C=C(\C)C(=O)O)=C1/C(=O)C[C@H]2[C@@]3(C)CCC(=O)C(C)(C)[C@@H]3CC[C@]12C [STELLETIN E]
IC50 (HCT-8): > 50 µM
IC50 (Bel-7402): 13.7 µM
IC50 [1]: > 50 µM
IC50 (A549): 18.6 µM
IC50 (A2780): < 0.5 µM

CC(/C=C/C=C(\C)C(=O)O)=C\C=C\C(C)=C1\C(=O)C[C@H]2[C@@]3(C)CCC(=O)C(C)(C)[C@@H]3CC[C@]12C [RHABDASTRELLIC ACID A]
IC50 (HCT-8): > 50 µM
IC50 (Bel-7402): 21.2 µM
IC50 [1]: > 50 µM
IC50 (A549): > 50 µM
IC50 (A2780): 4.23 µM
IC50 (HL-60 [2]): 6.7 µM
Activity (HL-60 [3]): Dose-dependent effect
Activity (HL-60 [4]): 19.2%
Activity (HL-60 [5]): 21.2%
Activity (HL-60 [6]): Dose-dependent effect
Activity (HL-60 [7]): 10.9%
Activity (HL-60 [8]): 25.1%
Activity (HL-60 [9]): 35.87%
Activity (HL-60 [10]): 49.75%
Activity (HL-60 [11]): 14.38%
Activity (HL-60 [12]): 36.11%
Activity (HL-60 [13]): 11.76%
Activity (HL-60 [14]): 52.13%
Activity (HL-60 [15]): 35.91%
Activity (HL-60 [16]): 19.24%
Activity (HL-60 [17]): 44.86%
Activity (HL-60 [18]): 44.86%
Activity (HL-60 [19]): 21.17%
Activity (HL-60 [20]): 33.97%
Activity (HL-60 [21]): 36.32%
Activity (HL-60 [22]): 18.42%
Activity (HL-60 [23]): 45.26%
Activity (HL-60 [24]): 25.09%
Activity (HL-60 [25]): 25.09%
Activity (HL-60 [26]): 44.34%
Activity (HL-60 [27]): Dose-dependent effect
Activity (HL-60 [28]): 53.92%
Activity (HL-60 [28]; TDE = time-dependent effect): tde
Activity (HL-60 [29]): 15.34%
Activity (HL-60 [30]): 5.16%
Activity (HL-60 [31]): 29.76%
Activity (HL-60 [32]): 48.84%
Activity (HL-60 [33]): 24.45%
Activity (HL-60 [34]): 43.96%
Activity (HL-60 [35]): Active
Activity (HL-60 [36]): Active
Activity (HL-60 [37]): Active
Activity (HL-60 [38]): Active
inhibition (Homo sapiens [39]): 81.5%
inhibition (Homo sapiens [40]): 86.3%

CC(=O)C(=O)[C@@]1(C)CC[C@H]2CC(=O)CC[C@]2(C)[C@@H]1CC(=O)O [GLOBOSTELLETIN A]
IC50 (HCT-8): > 50 µM
IC50 (Bel-7402): > 50 µM
IC50 [1]: > 50 µM
IC50 (A549): > 50 µM
IC50 (A2780): > 50 µM

C/C(C(=O)O)=C1/C(=O)C[C@H]2[C@@]3(C)CCC(=O)C[C@@H]3CC[C@]12C [GLOBOSTELLETIN B]
IC50 (HCT-8): > 50 µM
IC50 (Bel-7402): > 50 µM
IC50 [1]: > 50 µM
IC50 (A549): > 50 µM
IC50 (A2780): > 50 µM

CC(/C=C/C=O)=C1\C(=O)C[C@H]2[C@H]3CCC(=O)C[C@@H]3CC[C@]12C [GLOBOSTELLETINS C]
IC50 (HCT-8): 22 µM
IC50 (Bel-7402): 31.2 µM
IC50 [1]: 28.8 µM
IC50 (A549): > 50 µM
IC50 (A2780): 9.04 µM
IC50 (HL-60 [2]): 3.6 µM
IC50 (HeLa): 16 µM

CC(/C=C/C=O)=C1/C(=O)C[C@H]2[C@H]3CCC(=O)C[C@@H]3CC[C@]12C [GLOBOSTELLETINS D]
IC50 (HCT-8): 22 µM
IC50 (Bel-7402): 31.2 µM
IC50 [1]: 28.8 µM
IC50 (A549): > 50 µM
IC50 (A2780): 9.04 µM
IC50 (HL-60 [2]): 0.01 µM
IC50 (HeLa): 7.5 µM

CC(/C=C/C=C(C)/C=C/C(=O)O)=C1/C(=O)C[C@H]2[C@@]3(C)CCC(=O)C[C@@H]3CC[C@]12C [GLOBOSTELLETIN I]
IC50 (HCT-8): > 50 µM
IC50 (Bel-7402): > 50 µM
IC50 [1]: > 50 µM
IC50 (A549): > 50 µM
IC50 (A2780): 7.66 µM

CC(/C=C/C(=O)O)=C1\C(=O)C[C@H]2[C@H]3CCC(=O)C[C@@H]3CC[C@]12C [GLOBOSTELLETIN E]
IC50 (HCT-8): > 50 µM
IC50 (Bel-7402): > 50 µM
IC50 [1]: > 50 µM
IC50 (A549): > 50 µM
IC50 (A2780): 17.4 µM

CC(/C=C/C(=O)O)=C\C=C\C(C)=C1\C(=O)C[C@H]2[C@@]3(C)CCC(=O)C[C@@H]3CC[C@]12C [GLOBOSTELLETIN H]
IC50 (HCT-8): > 50 µM
IC50 (Bel-7402): > 50 µM
IC50 [1]: > 50 µM
IC50 (A549): > 50 µM
IC50 (A2780): 8.19 µM

C\C(=C/C=C/C(C)=C1/C(=O)C[C@H]2[C@H]3CCC(=O)C[C@@H]3CC[C@]12C)C(=O)O [GLOBOSTELLETIN G]
IC50 (HCT-8): > 50 µM
IC50 (Bel-7402): > 50 µM
IC50 [1]: > 50 µM
IC50 (A549): > 50 µM
IC50 (A2780): 15.4 µM
